The test has as its target T1, human beta-3-adrenergic receptor (Homo sapiens, UniProt P13945).
T1 construct: stably express full-length human beta-3-adrenergic receptor; expressed in transfected cells; host or cells: Chinese hamster ovary (CHO) cells
As to the kind of experiment: cAMP production (beta-3 agonist activity) in CHO cells stably expressing human beta-3-adrenergic receptor, cAMP SPA. In kind it is cell-based. Conditions: CHO cells expressing full-length human beta-3-adrenergic receptor, 30 min incubation, 10 μM to 3 nM. On the procedure:
Chinese hamster ovary (CHO) cells that stably express full-length human beta-3-adrenergic receptor (Granneman et al., Mol. Pharmacol. 44:264-270, 1993) can be used in the following procedure. The cell line is grown in 90% F12 nutrient mixture (HAM), 10% fetal bovine serum, 100 units/ml penicillin G sodium, […] streptomycin sulfate, and 2 mM L-glutamine at 37° C. in 95% air and 5% CO2. The transfected cell line is maintained with G-418 (800 μg/ml).
To test the agonist activity, cells are exposed to test compound and then assayed for cAMP production. CHO cells (100 μl) are plated at 5×10^4 cells/well of a 96-well plate (Costar, Cambridge, Mass.) to achieve 70% confluency the next day. After overnight incubation at 37° C., media is removed and the cells are treated for 30 minutes at 37° C. with KRP buffer (120 mM NaCl, 5.1 mM KCl, 0.6 mM MgSO4.7H2O, 0.8 mM CaCl2.H2O, […] phosphate buffer, […] Hepes pH 7.4)+[…] IBMX ([…]), +1% DMSO, +/− test compounds ([…]). Test compounds are assayed from 10 μM to 3 nM with 3-fold serial dilutions. The control agonist, isoproterenol (10 mM stock in 1.1 mM ascorbate), is assayed by 3-fold dilution beginning at 1 μM. After a 30-minute incubation with the test compounds, the buffer/compound mixture is removed. The cells are lysed and cAMP levels are measured using the cAMP SPA screening assay system (Amersham, Arlington Heights, Ill.). The cAMP values are then plotted to determine the EC50 of each compound tested.
A general note: Cyclic AMP is a second messenger, typically raised through Gs and lowered through Gi signalling.

Setting [1] is: read-out: Beta-3 Agonistic Activity: Compounds with EC50 values ≦1 μM.
The mark [2] stands for this setting: read-out: Beta-3 Agonistic Activity: Compounds with EC50 values >1 μM.

Where two headings read alike, the source gives them in different places.

By EC50 is commonly meant the midpoint of the concentration-response curve.

T1 sequence (P13945 whole entry): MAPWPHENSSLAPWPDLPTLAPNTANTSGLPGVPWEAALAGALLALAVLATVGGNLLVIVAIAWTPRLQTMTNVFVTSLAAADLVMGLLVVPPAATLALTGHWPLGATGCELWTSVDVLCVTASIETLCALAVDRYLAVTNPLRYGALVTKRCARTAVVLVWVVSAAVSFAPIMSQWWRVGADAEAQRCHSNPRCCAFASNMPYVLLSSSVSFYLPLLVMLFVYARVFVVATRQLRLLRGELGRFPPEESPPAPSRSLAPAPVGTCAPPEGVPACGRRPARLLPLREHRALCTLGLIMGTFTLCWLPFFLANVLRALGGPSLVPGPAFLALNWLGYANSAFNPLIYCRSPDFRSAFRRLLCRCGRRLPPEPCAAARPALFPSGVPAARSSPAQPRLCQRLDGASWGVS

On to `CN(C)CC(=O)NS(=O)(=O)c1cccc(-c2ccc3c(c2)CC[C@H](CNC[C@H](O)c2cccnc2)O3)c1` [Example 304], for which the EC50 under setting [1] was not above 1000 nM.

`CS(=O)(=O)c1ccc(Oc2cc(-c3ccc4c(c3)CC[C@H](CNC[C@H](O)c3cccnc3)O4)ccc2C(=O)O)cc1` [Example 198, 4-[(2R)-2-({[(2R)-2-hydroxy-2-(3-pyridinyl)ethyl]amino}methyl)-3,4-dihydro-2H-chromen-6-yl]-2-[4-(methylsulfonyl)phenoxy]benzoic acid]: the EC50 under setting [1] was not above 1000 nM.

On to `O=C(NS(=O)(=O)c1ccc(-c2ccc3c(c2)CC[C@H](CNC[C@H](O)c2cccnc2)O3)cc1)c1ccc(F)cc1` [Example 295, N-(4-fluorobenzoyl)-4-[(2R)-2-({[(2R)-2-hydroxy-2-(3-pyridinyl)ethyl]amino}methyl)-3,4-dihydro-2H-chromen-6-yl]benzenesulfonamide], for which the EC50 under setting [1] was not above 1000 nM.

Turning to `CN1C(=O)c2ccc(NS(=O)(=O)c3cccc(-c4ccc5c(c4)CC[C@H](CNC[C@H](O)c4cccnc4)O5)c3)cc2C1=O` [Example 252], under setting [1], the EC50 was not above 1000 nM.

`COCCOc1cc(-c2ccc3c(c2)CC[C@H](CNC[C@H](O)c2cccnc2)O3)ccc1C(=O)O` [Example 187, 4-[(2R)-2-({[(2R)-2-hydroxy-2-(3-pyridinyl)ethyl]amino}methyl)-3,4-dihydro-2H-chromen-6-yl]-2-(2-methoxyethoxy)benzoic acid]: the EC50 under setting [1] was not above 1000 nM.

With `O=[N+]([O-])c1cccc(-c2ccc3c(c2)CC[C@H](CNC[C@H](O)c2cccnc2)O3)c1` [Example 42], the EC50 under setting [2] is more than 1000 nM.

Regarding `O=C(Nc1ccc(-c2ccc3c(c2)CC[C@H](CNC[C@H](O)c2cccnc2)O3)nc1)c1ccccc1` [Example 322], the EC50 under setting [1] was not above 1000 nM. The same measure, in the same setting: as for `COCC(=O)NS(=O)(=O)c1cccc(-c2ccc3c(c2)CCC(CNC[C@H](O)c2cccnc2)O3)c1` (stereo in doubt) [Example 283, 3-[(2S)-2-({[(2R)-2-hydroxy-2-(3-pyridinyl)ethyl]amino}methyl)-3,4-dihydro-2H-chromen-6-yl]-N-(methoxyacetyl)benzenesulfonamide], the figure is not above 1000 nM; as for `COc1ccc(NC(=O)NS(=O)(=O)c2cccc(-c3ccc4c(c3)CC[C@H](CNC[C@H](O)c3cccnc3)O4)c2)cc1` [Example 334], not above 1000 nM. For the compound `Nc1ccc([C@@H](O)CNC[C@H]2CCc3cc(C(=O)N4CCC[C@H]4C(=O)O)ccc3O2)cn1` [Example 363], the EC50 under setting [2] was more than 1000 nM. For the compound `Cc1ccc(NC(=O)NS(=O)(=O)c2ccc(-c3ccc4c(c3)CC[C@H](CNC[C@H](O)c3cccnc3)O4)cc2)cc1` [Example 326, 3-((1R)-1-hydroxy-2-{[((2R)-6-{4-[({[(4-methylphenyl)amino]carbonyl}amino)sulfonyl]phenyl}-3,4-dihydro-2H-chromen-2-yl)methyl]amino}ethyl)pyridine], under setting [1], the EC50 was not above 1000 nM. Same read-out and setting: then `COCC(=O)NS(=O)(=O)c1ccc(-c2ccc3c(c2)CC[C@H](CNC[C@H](O)c2cccnc2)O3)cc1` [Example 291], with not above 1000 nM; and `CC(C)(C)CC(=O)NS(=O)(=O)c1ccc(-c2ccc3c(c2)CC[C@H](CNC[C@H](O)c2cccnc2)O3)cc1` [Example 287, N-(3,3-dimethylbutanoyl)-4-[(2R)-2-({[(2R)-2-hydroxy-2-(3-pyridinyl)ethyl]amino}methyl)-3,4-dihydro-2H-chromen-6-yl]benzenesulfonamide], with not above 1000 nM; and `O=S(=O)(Nc1ccccn1)c1cccc(-c2ccc3c(c2)CC[C@H](CNC[C@H](O)c2cccnc2)O3)c1` [Example 254], with not above 1000 nM.

On to `COc1ccc(-c2ccc3c(c2)CC[C@H](CNC[C@H](O)c2cccnc2)O3)cc1S(=O)(=O)Nc1nccs1` [Example 266], for which the concentration giving a half-maximal response (EC50) under setting [1] is not above 1000 nM. On to `O=C1CCc2cc(NS(=O)(=O)c3ccc(-c4ccc5c(c4)CC[C@H](CNC[C@H](O)c4cccnc4)O5)cc3)ccc21` [Example 258], for which the EC50 under setting [1] is not above 1000 nM.

The values are drawn from patent US6660752B2, “2,6-Substituted chroman derivatives useful as beta-3 adrenoreceptor agonists” (Bayer Pharmaceuticals Corporation, priority 2001, dated 2003).
